Read-outs that look alike come from different tables or passages of the source.
How the values were obtained:
Sprague-Dawley rats [1] = test: Repeated oral administration: gastric emptying, food intake, body weight; assay type: in vivo, rat
Description: (§1) Rats were fasted overnight (16-18 hours) with free access to water. The next morning, compound was administered and animals were individually housed in bedding-free cages with pre-weighed food available ad libitum and access to water for 2 hours. The water and food were then removed and the remaining food was re-weighed. Gastric emptying of the ingested meal was assessed 4 hours later. Animals were euthanized by CO2 inhalation followed by thoracotomy. The abdominal cavity was opened, the pylorus and cardia were clamped and the stomach was removed. The excised stomach was weighed and then opened along the greater curvature, rinsed with tap water, lightly dried and re-weighed. The amount of food in the stomach (grams) was estimated based on the difference between the total weight of the stomach plus its contents and the weight of the stomach after the contents were removed. The meal ingested (food intake) was determined by the difference between pre- and post-feeding weight at the end of the 2 hour period. Gastric emptying during the 4 hour experiment is represented as: Gastric emptying=[1−(gastric content/food intake)]×100. Gastric Secretion
Male, Sprague-Dawley rats (weighing between 240-283 g each and 5-6 rats per test group) were orally dosed with 3 mg/kg, 10 mg/kg or 30 mg/kg of Compound A with a 0.5% MC vehicle or with a 0.5% MC vehicle alone once a day for five days and were then fasted overnight. The rats were then dosed again on the sixth day and placed in individual, bedding-free cages and allowed ad libitium access to pre-weighed food and water for two hours. The food and water were then removed and the food was reweighed. Data were analyzed using a one-way ANOVA followed by a Dunnett's Multiple Comparison Test, where *P<0.05 as compared to the appropriate vehicle. Data are represented as the means+S.E.M. % Gastric Emptying in 4 hours=(1−(gastric content/food intake))×100.

Sprague-Dawley rats [2] = test: Gastrointestinal transit, charcoal meal assay; assay type: in vivo, rat
Description: Small intestinal transit was measured based on a known method which involved the oral administration of a charcoal meal (Gmerek et al. (1986). “Independent central and peripheral mediation of morphine-induced inhibition of gastrointestinal transit in rats.” J Pharmacol Exp Ther 236(1): 8-13). Rats were fasted with free access to water for 18 hours. Test compound or vehicle was dosed prior to oral administration of a charcoal slurry containing activated charcoal, flour and water in a ratio of 1:2:7.5 (10 ml/kg orally). One hour after receiving the charcoal slurry, rats were euthanized by CO2 asphyxiation. The stomach and GI tract was excised from each animal. Whole stomach weight was recorded and the length of the small intestine (cm) (stomach to cecum) and the distance (cm) to the leading edge of charcoal was measured. Small intestinal transit data are expressed as a percentage of the distance traveled (i.e. % small intestinal transit=(distance charcoal traveled)/(total length of small intestine (stomach to cecum)×100). Pretreatment times were determined on the basis of pharmacokinetic data (not shown) and were as follows: Compound A, 60 minutes, Compound C, 60 minutes; carbamazepine, 60 minutes. Morphine was administered with a pretreatment time of 30 mins based on previous experience.

CD1 mice = test: Gastric emptying of a test meal in mice; assay type: in vivo
Description: as §1
Male, CD1 mice (weighing between 30-36 g each and 6 mice per test group) were fasted overnight (19 hours). The mice then were subcutaneously administered 3 mg/kg of Compound A with a 25% HPBCD vehicle, a 25% HPBCD vehicle alone, orally administered 100 mg/kg of Compound A with a 0.5% MC vehicle, or a 0.5% MC vehicle alone. The mice were then placed in individual, bedding-free cages and allowed ad libitium access to pre-weighed food and water for two hours. The food and water were then removed and the food was reweighed. Gastric emptying was assessed four hours later by euthanizing the mice and analyzing the stomach and stomach contents. Data were analyzed using an unpaired t-test where *P<0.05 and ***P<0.001 and represented as the means+S.E.M. % Gastric Emptying in 4 hours=(1−(gastric content/food intake)×100).

cynomolgus monkeys = assay type: in vivo
Description: Studies in cynomolgous monkeys were conducted by Battelle (Columbus, Ohio). Eleven monkeys, seven males and four females that had been previously received, quarantined, and acclimated and were naïve (females), or had not been used on other studies for a minimum of 6 months (males), were utilized. Prior to use on study, monkeys were acclimated to chair restraint for up to 2 hours. Chair restraint was used to facilitate dose administration and blood collection. Animals were individually housed in stainless steel cages. Monkeys were offered a certified diet twice daily and had access to fresh water ad libitum. The animals also were supplemented with fresh fruits and/or fresh vegetables. Monkeys were fasted overnight prior to dose administration.
Observations for moribundity and mortality were performed on all animals twice daily throughout the duration of the study. Cage-side clinical observations were recorded for all animals prior to dose administration and at the times of blood collection.
As such, a pharmacokinetic and observational study was conducted in cynomologous monkeys (FIG. 16). Plasma concentrations of Compound A were measured following a single oral dose of 10, 50 and 100 mg/kg up to 24 hours post-dosing (FIGS. 16A, B and C).

[3] = 30 mg/kg p.o. once a day, over 5 days
[4] = p.o. 3, 10, 30 mg/kg once a day for 6 days, 0.5% MC
[5] = p.o. 100 mg/kg, 0.5% MC vehicle
[6] = individual monkey presenting the highest plasma levels
[7] = monkey, p.o. 100 mg/kg, animals affected/animals dosed, 100 mg/kg

## C[C@H](Nc1cc(C(N)=O)nc(-c2ccc(Oc3ccc(OC(F)(F)F)cc3)cc2)n1)C(N)=O [Compound A]
Sprague-Dawley rats [1]; [3]
  body weight lost as a percentage of total body weight: 2.6%
  mean body weight loss: 6.3 g
Sprague-Dawley rats [1]; measured on day 5, p.o. 3, 10, 30 mg/kg once a day
  body weight: decreased for all Compound A dosage levels
Sprague-Dawley rats [1]; [4]
  % Gastric Emptying in 4 hours: inhibited the percentage of gastric emptying
  food intake: decrease in food intake
Sprague-Dawley rats [2]; charcoal meal assay
  dosage level with significant effect on stomach weight: 100 mg/kg
Sprague-Dawley rats [2]; charcoal meal assay, vs vehicle treated animals
  stomach weight: statistically significant increase in stomach weight
Sprague-Dawley rats [2]; charcoal meal, 60 minutes pretreatment, vs vehicle
  gastrointestinal transit (% small intestinal transit): No statistically significant decrease in gastrointestinal transit
CD1 mice; [5]
  % Gastric Emptying in 4 hours: inhibit gastric emptying
  stomach weight: stomach weight increase
CD1 mice; s.c. 3 mg/kg, 25% HPBCD vehicle
  % Gastric Emptying in 4 hours: inhibit gastric emptying
Cynomolgus monkeys; [6]
  food intake after 24 hrs post-dosing: reduced food intake for at least two additional days post dosing
  food intake and feces production up to 24 hrs post-dosing: zero food intake and zero feces production
Cynomolgus monkeys; monkey, p.o. 10 mg/kg
  food consumption or feces production: no treatment related-effect was discernable
Cynomolgus monkeys; monkey, p.o. 10 mg/kg, animals affected/animals dosed, 10 mg/kg
  Clinical Observations (frequency): Diarrhea: 2 out of the 3 and (2/3)
Cynomolgus monkeys; monkey, p.o. 50 mg/kg, animals affected/animals dosed, 50 mg/kg
  Clinical Observations (frequency): Distended/Bloated Abdomen: 2 out of 4 and Abdomen (2/4)
Cynomolgus monkeys; [7]
  Clinical Observations (frequency): Distended/Bloated Abdomen: 2 out of 4 and Abdomen (2/4)
  Clinical Observations (frequency): Low Food Consumption: 2 out of the 4 and Consumption (2/4)
